8 molecules from ChEMBL document CHEMBL4680227, “Design and synthesis of selective degraders of EGFR mutant” (Eur J Med Chem, 2020) can be followed below.

What all share (assay type): cell-based
Experiment [1] concerns the target Protein cereblon/Epidermal growth factor receptor (Homo sapiens, UniProt P00533+Q96SW2). Kind of experiment: Protac activity at CRBN/EGFR in human A431 cells assessed as EGFR degradation by Western blot analysis. The conditions noted are these: a-431. Background: Immunoblotting shows a protein as a band on a membrane.
The target in experiment [2] is von Hippel-Lindau disease tumor suppressor/Epidermal growth factor receptor (Homo sapiens, UniProt P00533+P40337). Kind of experiment: Protac activity at VHL/EGFR in human A431 cells assessed as EGFR degradation by Western blot analysis. The conditions noted are these: a-431.
The target of experiment [3] is E3 ubiquitin-protein ligase Mdm2/Epidermal growth factor receptor (Homo sapiens, UniProt Q00987+P00533). Kind of experiment: Protac activity at MDM2/EGFR in human A431 cells assessed as EGFR degradation by Western blot analysis. The note with it: a-431.
The test system of experiment [4] is E3 ubiquitin-protein ligase Mdm2/Epidermal growth factor receptor (Homo sapiens), Q00987+P00533 [T790M,L858M]. Kind of experiment: (§1) Protac activity at MDM2/EGFR L858R/T790M mutant in human NCI-H1975 cells assessed as EGFR degradation by Western blot analysis.
Experiment [5] deals with E3 ubiquitin-protein ligase Mdm2/Epidermal growth factor receptor (Homo sapiens, UniProt Q00987+P00533, T790M/L858M). Described as §1.
For experiment [6], the target named is Baculoviral IAP repeat-containing protein 2/Epidermal growth factor receptor (Homo sapiens, UniProt P00533+Q13490). Kind of experiment: Protac activity at cIAP1/EGFR in human A431 cells assessed as EGFR degradation by Western blot analysis. The conditions noted are these: a-431.
Experiment [7] deals with von Hippel-Lindau disease tumor suppressor/Epidermal growth factor receptor (Homo sapiens, UniProt P00533+P40337, T790M/L858R). Kind of experiment: Protac activity at VHL/EGFR L858R/T790M mutant in human NCI-H1975 cells assessed as EGFR degradation by Western blot analysis.

A value given as a limit tells only on which side of the number the result lay.

Chain of von Hippel-Lindau disease tumor suppressor/Epidermal growth factor receptor (Homo sapiens, UniProt P00533+P40337) (P00533 whole entry): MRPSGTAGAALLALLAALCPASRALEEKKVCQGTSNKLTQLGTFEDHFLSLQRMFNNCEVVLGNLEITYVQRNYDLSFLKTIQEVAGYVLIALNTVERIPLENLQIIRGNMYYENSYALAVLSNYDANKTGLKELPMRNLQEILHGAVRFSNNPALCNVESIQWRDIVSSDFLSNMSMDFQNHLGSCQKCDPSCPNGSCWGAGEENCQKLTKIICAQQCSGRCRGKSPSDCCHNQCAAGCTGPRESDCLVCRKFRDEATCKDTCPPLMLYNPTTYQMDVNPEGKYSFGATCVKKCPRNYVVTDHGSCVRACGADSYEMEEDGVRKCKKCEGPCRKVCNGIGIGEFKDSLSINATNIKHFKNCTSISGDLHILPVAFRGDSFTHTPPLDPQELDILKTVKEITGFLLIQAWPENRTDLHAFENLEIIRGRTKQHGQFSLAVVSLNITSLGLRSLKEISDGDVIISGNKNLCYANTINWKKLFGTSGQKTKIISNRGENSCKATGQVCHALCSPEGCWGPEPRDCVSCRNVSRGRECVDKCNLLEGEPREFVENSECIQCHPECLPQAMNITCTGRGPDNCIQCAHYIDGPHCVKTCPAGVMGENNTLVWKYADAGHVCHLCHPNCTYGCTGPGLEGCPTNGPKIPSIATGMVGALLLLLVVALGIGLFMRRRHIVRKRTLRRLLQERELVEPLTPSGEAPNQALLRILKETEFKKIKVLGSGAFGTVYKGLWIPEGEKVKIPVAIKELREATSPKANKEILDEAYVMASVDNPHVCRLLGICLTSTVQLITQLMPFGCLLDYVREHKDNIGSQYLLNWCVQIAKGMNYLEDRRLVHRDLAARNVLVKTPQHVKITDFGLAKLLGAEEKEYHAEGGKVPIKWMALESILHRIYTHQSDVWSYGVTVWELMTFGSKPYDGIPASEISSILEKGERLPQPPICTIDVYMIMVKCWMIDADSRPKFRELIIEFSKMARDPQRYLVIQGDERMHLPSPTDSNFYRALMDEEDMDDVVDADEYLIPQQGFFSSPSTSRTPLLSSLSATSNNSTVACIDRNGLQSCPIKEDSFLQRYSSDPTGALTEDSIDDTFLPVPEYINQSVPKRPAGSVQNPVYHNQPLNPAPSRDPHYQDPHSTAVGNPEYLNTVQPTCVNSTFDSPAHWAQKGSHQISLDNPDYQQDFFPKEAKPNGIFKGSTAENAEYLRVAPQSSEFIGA
Chain of von Hippel-Lindau disease tumor suppressor/Epidermal growth factor receptor (Homo sapiens, UniProt P00533+P40337) (P40337 whole entry): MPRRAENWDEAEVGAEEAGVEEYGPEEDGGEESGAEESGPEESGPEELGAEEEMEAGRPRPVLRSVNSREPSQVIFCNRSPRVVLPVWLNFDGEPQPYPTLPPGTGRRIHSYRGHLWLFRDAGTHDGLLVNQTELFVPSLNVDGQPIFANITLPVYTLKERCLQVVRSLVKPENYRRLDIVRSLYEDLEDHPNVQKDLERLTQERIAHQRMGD
Chain of E3 ubiquitin-protein ligase Mdm2/Epidermal growth factor receptor (Homo sapiens, UniProt Q00987+P00533) (Q00987 whole entry): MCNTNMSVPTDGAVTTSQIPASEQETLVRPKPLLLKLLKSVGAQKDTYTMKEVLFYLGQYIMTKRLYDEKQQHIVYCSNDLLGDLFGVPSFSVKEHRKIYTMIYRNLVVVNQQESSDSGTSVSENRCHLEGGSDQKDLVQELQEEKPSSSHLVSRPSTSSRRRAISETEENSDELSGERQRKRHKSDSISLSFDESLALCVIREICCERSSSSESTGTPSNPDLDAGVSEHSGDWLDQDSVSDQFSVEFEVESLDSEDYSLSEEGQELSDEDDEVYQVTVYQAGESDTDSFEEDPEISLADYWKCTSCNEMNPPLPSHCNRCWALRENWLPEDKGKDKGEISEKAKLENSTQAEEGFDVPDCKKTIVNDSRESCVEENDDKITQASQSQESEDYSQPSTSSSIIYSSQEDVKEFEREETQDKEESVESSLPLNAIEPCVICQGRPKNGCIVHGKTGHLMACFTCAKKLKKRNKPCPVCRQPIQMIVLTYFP
Chain of E3 ubiquitin-protein ligase Mdm2/Epidermal growth factor receptor (Homo sapiens, UniProt Q00987+P00533) (P00533 whole entry): as the sequence (P00533 whole entry) above
Chain of von Hippel-Lindau disease tumor suppressor/Epidermal growth factor receptor (Homo sapiens, UniProt P00533+P40337, T790M/L858R) (P00533 whole entry, looked up, stated change not applied): as the sequence (P00533 whole entry) above
Chain of von Hippel-Lindau disease tumor suppressor/Epidermal growth factor receptor (Homo sapiens, UniProt P00533+P40337, T790M/L858R) (P40337 whole entry, looked up, stated change not applied): as the sequence (P40337 whole entry) above

For orientation: DC50 means the concentration at which degradation of the target reaches its halfway point. Consider `C=CC(=O)Nc1cccc(-n2c(=O)cc(C)c3cnc(Nc4ccc(N5CCN(C(=O)CCCCCCCCCCC(=O)Nc6cccc7c6C(=O)N(C6CCC(=O)NC6=O)C7=O)CC5)cc4OC)nc32)c1` (configuration not stated), for which, in experiment [1], the DC50 was more than 2000 nM.

Regarding `C=CC(=O)Nc1cccc(-n2c(=O)cc(C)c3cnc(Nc4ccc(N5CCN(C(=O)CCCCC(=O)N[C@H](C(=O)N6C[C@H](O)C[C@H]6C(=O)NCc6ccc(-c7scnc7C)cc6)C(C)(C)C)CC5)cc4OC)nc32)c1`, the DC50 in experiment [2] is more than 2000 nM.

Take `C=CC(=O)Nc1cccc(-n2c(=O)cc(C)c3cnc(Nc4ccc(N5CCN(CCCCCCCCCCCCNC(=O)c6ccc(NC(=O)[C@@H]7N[C@@H](CC(C)(C)C)[C@](C#N)(c8ccc(Cl)cc8F)[C@H]7c7cccc(Cl)c7F)c(OC)c6)CC5)cc4OC)nc32)c1`: the DC50 in experiment [3] was more than 2000 nM.

As to `C=CC(=O)Nc1cccc(-n2c(=O)cc(C)c3cnc(Nc4ccc(N5CCN(C(=O)CCCCCCCCCCCNC(=O)c6ccc(NC(=O)[C@@H]7N[C@@H](CC(C)(C)C)[C@](C#N)(c8ccc(Cl)cc8F)[C@H]7c7cccc(Cl)c7F)c(OC)c6)CC5)cc4OC)nc32)c1`, the half-maximal degradation concentration (DC50) was more than 2000 nM in experiment [3] and 264 nM in experiment [5]. Besides, the Activity entry in experiment [4] is “Dose-dependent effect”.

In the case of `C=CC(=O)Nc1cccc(-n2c(=O)cc(C)c3cnc(Nc4ccc(N5CCN(CCCC(=O)N[C@H](C(=O)N6C[C@H](O)C[C@H]6C(=O)NCc6ccc(-c7scnc7C)cc6)C(C)(C)C)CC5)cc4OC)nc32)c1`, the 50% degradation concentration (DC50) in experiment [2] is more than 2000 nM.

As to `C=CC(=O)Nc1cccc(-n2c(=O)cc(C)c3cnc(Nc4ccc(N5CCN(C(=O)CCCCCCCCCCCNC(=O)[C@H](CC(C)C)NC(=O)[C@@H](O)[C@H](N)Cc6ccccc6)CC5)cc4OC)nc32)c1`, the 50% degradation concentration (DC50) in experiment [6] is more than 2000 nM.

In the case of `C=CC(=O)Nc1cccc(-n2c(=O)cc(C)c3cnc(Nc4ccc(N5CCN(CCCCCCCCCCCC(=O)N[C@H](C(=O)N6C[C@H](O)C[C@H]6C(=O)NCc6ccc(-c7scnc7C)cc6)C(C)(C)C)CC5)cc4OC)nc32)c1`, the half-maximal degradation concentration (DC50) in experiment [2] was 50.3 nM; in experiment [7], more than 2000 nM.

With `C=CC(=O)Nc1cccc(-n2c(=O)cc(C)c3cnc(Nc4ccc(N5CCN(CCCCCCCC(=O)N[C@H](C(=O)N6C[C@H](O)C[C@H]6C(=O)NCc6ccc(-c7scnc7C)cc6)C(C)(C)C)CC5)cc4OC)nc32)c1`, the half-maximal degradation concentration (DC50) was more than 2000 nM in experiment [2] and 466 nM in experiment [7].
